# From PubChem BioAssay AID330 (DTP/NCI, 2004)
# Several values for one entry are separate records, joined by “and”; a condition that tells them apart may be missing. Equal entries are not always repeated. Inconclusive results and toxic doses are left out.
# Test system: P388 leukemia ip, CD2F1 mice, survival T/C
# Test: NCI In Vivo Anticancer Drug Screen. Data for tumor model P388 Leukemia (intraperitoneal) in CD2F1 (CDF1) mice
# Conditions: endpoint: median survival time, higher = longer survival
# Procedure, shortened: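 Mice carrying the transplanted tumor received test compound or vehicle. Survival was recorded in each group, and the value is the treated-group measurement divided by that of the vehicle-treated control group.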
# [1] = dose: 50.0 mg/kg/injection, schedule: Q01DX009 (ip), vehicle: saline with Tween-80
# [2] = dose: 100.0 mg/kg/injection, schedule: Q01DX009 (ip), vehicle: saline with Tween-80
# [3] = dose: 200.0 mg/kg/injection, schedule: Q01DX009 (ip), vehicle: saline with Tween-80
# [4] = dose: 100.0 mg/kg/injection, schedule: Q04DX002 (ip), vehicle: Klucel (hydroxypropylcellulose) (HPC)
# [5] = dose: 100.0 mg/kg/injection, schedule: Q01DX001 (ip), vehicle: saline with Tween-80
# [6] = dose: 200.0 mg/kg/injection, schedule: Q01DX001 (ip), vehicle: saline with Tween-80
# [7] = dose: 400.0 mg/kg/injection, schedule: Q01DX001 (ip), vehicle: saline with Tween-80
# [8] = dose: 50.0 mg/kg/injection, schedule: Q01DX005 (ip), vehicle: Klucel (hydroxypropylcellulose) (HPC)
# [9] = dose: 100.0 mg/kg/injection, schedule: Q01DX005 (ip), vehicle: Klucel (hydroxypropylcellulose) (HPC)
# [10] = dose: 200.0 mg/kg/injection, schedule: Q01DX005 (ip), vehicle: Klucel (hydroxypropylcellulose) (HPC)
# [11] = dose: 50.0 mg/kg/injection, schedule: Q01DX005 (ip), vehicle: saline with Tween-80
# [12] = dose: 100.0 mg/kg/injection, schedule: Q01DX005 (ip), vehicle: saline with Tween-80
# [13] = dose: 200.0 mg/kg/injection, schedule: Q01DX005 (ip), vehicle: saline with Tween-80
# [14] = dose: 25.0 mg/kg/injection, schedule: Q01DX009 (ip), vehicle: saline with Tween-80
# [15] = dose: 60.0 mg/kg/injection, schedule: Q01DX005 (ip), vehicle: saline with Tween-80
# [16] = dose: 120.0 mg/kg/injection, schedule: Q01DX005 (ip), vehicle: saline with Tween-80
# [17] = dose: 240.0 mg/kg/injection, schedule: Q01DX005 (ip), vehicle: saline with Tween-80
smiles,measurement,setting,value
O=C(O)CC(=O)C(=O)O,T/C,"dose: 100.0 mg/kg/injection, schedule: Q04DX002 (ip), vehicle: saline with Tween-80",98 % of control
same,T/C,"dose: 100.0 mg/kg/injection, schedule: Q04DX002 (ip), vehicle: saline",101 % of control
same,T/C,"dose: 200.0 mg/kg/injection, schedule: Q04DX002 (ip), vehicle: saline with Tween-80",112 % of control
same,T/C,"dose: 200.0 mg/kg/injection, schedule: Q04DX002 (ip), vehicle: saline",97 % of control
same,T/C,"dose: 400.0 mg/kg/injection, schedule: Q04DX002 (ip), vehicle: saline with Tween-80",112 % of control
CN1C(Sc2ccccc2)=NN(c2ccccc2)CN1c1ccccc1,T/C,"dose: 50.0 mg/kg/injection, schedule: Q04DX003 (ip), vehicle: saline with Tween-80",93 % of control
same,T/C,"dose: 100.0 mg/kg/injection, schedule: Q04DX003 (ip), vehicle: saline with Tween-80",97 % of control
same,T/C,"dose: 200.0 mg/kg/injection, schedule: Q04DX003 (ip), vehicle: saline with Tween-80",88 % of control
CCCCCCCCC#CC(=O)OC,T/C,[1],97 % of control
same,T/C,[2],92 % of control
same,T/C,[3],97 % of control
O=S1(=O)C(c2ccccc2)=C(O)c2cc3ccccc3nc21,T/C,[1],107 % of control
same,T/C,[2],112 % of control
same,T/C,[3],107 % of control
Nc1ccn(COCCOCc2ccccc2)c(=O)n1,T/C,[4],98 % of control
same,T/C,"dose: 200.0 mg/kg/injection, schedule: Q04DX002 (ip), vehicle: Klucel (hydroxypropylcellulose) (HPC)",100 % of control
same,T/C,"dose: 400.0 mg/kg/injection, schedule: Q04DX002 (ip), vehicle: Klucel (hydroxypropylcellulose) (HPC)",99 % of control
CC(=O)Nc1cc2ccccc2c(Br)n1,T/C,[5],90 % of control
same,T/C,[6],97 % of control
same,T/C,[7],97 % of control
C=CCCCN1C(=O)CCC1=O,T/C,"dose: 50.0 mg/kg/injection, schedule: Q01DX005 (ip), vehicle: saline",105 % of control
same,T/C,"dose: 100.0 mg/kg/injection, schedule: Q01DX005 (ip), vehicle: saline",97 % of control
same,T/C,"dose: 200.0 mg/kg/injection, schedule: Q01DX005 (ip), vehicle: saline",100 % of control
CSc1nc2ccc(N=Cc3ccc([N+](=O)[O-])cc3)cc2s1,T/C,"dose: 50.0 mg/kg/injection, schedule: Q01DX009 (ip), vehicle: Klucel (hydroxypropylcellulose) (HPC)",98 % of control
same,T/C,"dose: 100.0 mg/kg/injection, schedule: Q01DX009 (ip), vehicle: Klucel (hydroxypropylcellulose) (HPC)",86 % of control
same,T/C,"dose: 200.0 mg/kg/injection, schedule: Q01DX009 (ip), vehicle: Klucel (hydroxypropylcellulose) (HPC)",87 % of control and 92 % of control
COC(=O)c1cc(=O)n(-c2cccc(OC)c2)c(SC)n1,T/C,"dose: 25.0 mg/kg/injection, schedule: Q04DX002 (ip), vehicle: Klucel (hydroxypropylcellulose) (HPC)",107 % of control
same,T/C,"dose: 50.0 mg/kg/injection, schedule: Q04DX002 (ip), vehicle: Klucel (hydroxypropylcellulose) (HPC)",103 % of control
same,T/C,[4],104 % of control and 105 % of control
CCC12C[N+]3([O-])CCc4c([nH]c5ccccc45)C(C(=O)OC)(c4cc5c(cc4OC)N(C)C4C(O)(C(=O)OC)C(OC(C)=O)C6(CC)C=CCN7CCC54C76)CC(C3)C1O2 (stereo not given),T/C,"dose: 2.0 mg/kg/injection, schedule: Q01DX001 (ip), vehicle: water",102 % of control
same,T/C,"dose: 8.0 mg/kg/injection, schedule: Q01DX001 (ip), vehicle: distilled water + Tween-80",161 % of control
same,T/C,"dose: 8.0 mg/kg/injection, schedule: Q01DX001 (ip), vehicle: water",122 % of control
same,T/C,"dose: 16.0 mg/kg/injection, schedule: Q01DX001 (ip), vehicle: distilled water + Tween-80",193 % of control
same,T/C,"dose: 32.0 mg/kg/injection, schedule: Q01DX001 (ip), vehicle: water",171 % of control
same,T/C,"dose: 64.0 mg/kg/injection, schedule: Q01DX001 (ip), vehicle: water",190 % of control
CC(NC(=O)C(c1ccccc1)c1ccccc1)C(=O)O (stereo not given),T/C,[8],97 % of control
same,T/C,[9],107 % of control
same,T/C,[10],97 % of control
Cc1cc(Cl)ccc1S(=O)(=O)Cl,T/C,[1],104 % of control
same,T/C,[2],103 % of control
O=C1c2ccccc2C(=O)c2c1c(O)c1cccnc1c2O,T/C,[11],103 % of control
same,T/C,[12],100 % of control
same,T/C,[13],95 % of control
CC#CCOCC(O)CCl (stereo not given),T/C,"dose: 66.0 mg/kg/injection, schedule: Q04DX003 (ip), vehicle: saline",110 % of control
same,T/C,"dose: 100.0 mg/kg/injection, schedule: Q04DX003 (ip), vehicle: saline",100 % of control
same,T/C,"dose: 150.0 mg/kg/injection, schedule: Q04DX003 (ip), vehicle: saline",120 % of control
CC(=O)N(c1nc2ccccc2n1C)C(C)C,T/C,[14],110 % of control
same,T/C,[1],98 % of control
same,T/C,[2],115 % of control
O=c1nc(Cl)c2ccccc2c2ccccc12,T/C,[5],96 % of control
same,T/C,[12],96 % of control
same,T/C,[6],97 % of control
same,T/C,[13],97 % of control
same,T/C,[7],87 % of control
same,T/C,"dose: 400.0 mg/kg/injection, schedule: Q01DX005 (ip), vehicle: saline with Tween-80",87 % of control
O=C1CSC(c2ccc(C(F)(F)F)cc2)N1c1nncs1 (stereo not given),T/C,[15],99 % of control
same,T/C,[16],104 % of control
same,T/C,[17],97 % of control
O=C1CC(=O)OCCOCCOCCO1,T/C,"dose: 50.0 mg/kg/injection, schedule: Q01DX009 (ip), vehicle: saline",98 % of control
same,T/C,"dose: 100.0 mg/kg/injection, schedule: Q01DX009 (ip), vehicle: saline",117 % of control
same,T/C,"dose: 200.0 mg/kg/injection, schedule: Q01DX009 (ip), vehicle: saline",101 % of control
CSc1nc(NC2OCC(O)C(O)C2O)c(Cl)c(=O)n1C (stereo not given),T/C,[15],103 % of control
same,T/C,[16],104 % of control
same,T/C,[17],100 % of control
CC(C)(C)N(O)c1cccc(P(=O)(c2ccccc2)c2ccccc2)c1,T/C,[14],108 % of control
same,T/C,[1],94 % of control
same,T/C,[2],92 % of control
CNC(=O)OCc1cnc2ccc(OC)cc2c1COC(=O)NC,T/C,[8],92 % of control
same,T/C,[9],99 % of control
same,T/C,[10],102 % of control
COc1ccc2c(C)cc(NN)nc2c1,T/C,"dose: 6.25 mg/kg/injection, schedule: Q01DX005 (ip), vehicle: Klucel (hydroxypropylcellulose) (HPC)",104 % of control
same,T/C,"dose: 12.5 mg/kg/injection, schedule: Q01DX005 (ip), vehicle: Klucel (hydroxypropylcellulose) (HPC)",103 % of control
CN(C)CC(CN(C)C)C(=O)c1ccc(Oc2ccccc2)cc1,T/C,"dose: 7.5 mg/kg/injection, schedule: Q01DX005 (ip), vehicle: saline",123 % of control
same,T/C,"dose: 15.0 mg/kg/injection, schedule: Q01DX005 (ip), vehicle: saline",120 % of control
CN(C)/C=C1\C(=O)O[C@H]2CCC[C@@]12C,T/C,[5],107 % of control
same,T/C,[6],106 % of control
C=C=C(COC(C)=O)ON1CCOCC1,T/C,"dose: 100.0 mg/kg/injection, schedule: Q01DX001 (ip), vehicle: saline",99 % of control
same,T/C,"dose: 200.0 mg/kg/injection, schedule: Q01DX001 (ip), vehicle: saline",103 % of control
same,T/C,"dose: 400.0 mg/kg/injection, schedule: Q01DX001 (ip), vehicle: saline",100 % of control
C/C1=C/CCC(C)c2cc(OC(=O)c3ccccc3)c(C)cc2C1 (stereo not given),T/C,"dose: 25.0 mg/kg/injection, schedule: Q01DX005 (ip), vehicle: Klucel (hydroxypropylcellulose) (HPC)",104 % of control
same,T/C,[8],99 % of control
same,T/C,"dose: 70.0 mg/kg/injection, schedule: Q01DX005 (ip), vehicle: Klucel (hydroxypropylcellulose) (HPC)",90 % of control
same,T/C,[9],107 % of control
same,T/C,"dose: 140.0 mg/kg/injection, schedule: Q01DX005 (ip), vehicle: Klucel (hydroxypropylcellulose) (HPC)",95 % of control
same,T/C,[10],95 % of control
same,T/C,"dose: 280.0 mg/kg/injection, schedule: Q01DX005 (ip), vehicle: Klucel (hydroxypropylcellulose) (HPC)",90 % of control
same,T/C,"dose: 560.0 mg/kg/injection, schedule: Q01DX005 (ip), vehicle: Klucel (hydroxypropylcellulose) (HPC)",90 % of control
CC(C)(C)C1=CCN(C(C)(C)/C=N\O)CC1,T/C,"dose: 12.5 mg/kg/injection, schedule: Q01DX005 (ip), vehicle: saline with Tween-80",97 % of control
same,T/C,"dose: 25.0 mg/kg/injection, schedule: Q01DX005 (ip), vehicle: saline with Tween-80",100 % of control
same,T/C,[11],100 % of control and 96 % of control
